Drawing on ChEMBL document CHEMBL1140526, “Effect of varying the 4''-position of arbekacin derivatives on antibacterial activity against MRSA and Pseudomonas aeruginosa” (2007), this text covers MIC, MIC50 and MIC90 for 12 compounds.

What all share (assay type): functional
Assay [1] deals with Staphylococcus aureus. The assay can be described thus: Antibacterial activity against Staphylococcus aureus 209P JC-1.
Assay [2] deals with Staphylococcus aureus. The assay can be described thus: Antibacterial activity against methicillin-resistant Staphylococcus aureus MF490.
Assay [3] has as its system Staphylococcus aureus. The experiment in a line: Antibacterial activity against methicillin-resistant Staphylococcus aureus MSC03571.
The subject of assay [4] is Escherichia coli. The assay can be described thus: Antibacterial activity against Escherichia coli NIH JC2.
For assay [5], the system named is Pseudomonas aeruginosa. The experiment in a line: Antibacterial activity against Pseudomonas aeruginosa PA01.
In assay [6] the test system is Pseudomonas aeruginosa. The assay can be described thus: Antibacterial activity against Pseudomonas aeruginosa N101.
In assay [7] the test system is Pseudomonas aeruginosa. The experiment in a line: Antibacterial activity against Pseudomonas aeruginosa GN315.
Assay [8] concerns Pseudomonas aeruginosa. The assay can be described thus: Antibacterial activity against Pseudomonas aeruginosa isolates.
For assay [9], the system named is Staphylococcus aureus. The assay can be described thus: Antibacterial activity against methicillin resistant Staphylococcus aureus isolates.

The term MIC denotes the lowest concentration that inhibits growth of the organism. Higher therefore signals a need for much substance. By MIC50 is commonly meant the lowest concentration that inhibits either 50% of growth or 50% of the strains tested, depending on the study. Low values mean greater potency, high ones weaker potency. What is called MIC90 is the lowest concentration that inhibits either 90% of growth or 90% of the strains tested, depending on the study.

Molecules are shown by their SMILES. Converted amounts (≈) assume the structure as drawn. Bounds are passed on as bounds.

Regarding `NCC[C@H](O)C(=O)N[C@@H]1C[C@H](N)[C@@H](O[C@H]2O[C@H](CN)CC[C@H]2N)[C@@H](F)[C@H]1O[C@H]1O[C@H](CO)[C@H](O)[C@H](N)[C@H]1O`, the MIC in assay [1] was 0.06 µg/mL (≈ 0.108 µM); in [2], 4 µg/mL (≈ 7.21 µM); in assay [3], 2 µg/mL (≈ 3.61 µM); in assay [4], 1 µg/mL (≈ 1.8 µM); in assay [5] it was 2 µg/mL (≈ 3.61 µM); in assay [6] it was 0.5 µg/mL (≈ 0.902 µM). 32 µg/mL (≈ 57.7 µM) was the least that counted as inhibitory in assay [7] (MIC).

Consider `NCC[C@H](O)C(=O)N[C@@H]1C[C@H](N)[C@@H](O[C@H]2O[C@H](CN)CC[C@H]2N)[C@@H](N)[C@H]1O[C@H]1O[C@H](CO)[C@H](O)[C@H](N)[C@H]1O`, for which the MIC in assay [1] came to 0.25 µg/mL (≈ 0.453 µM); in assay [2], 4 µg/mL (≈ 7.25 µM); in assay [3] it was 4 µg/mL (≈ 7.25 µM); in [4] it was 2 µg/mL (≈ 3.63 µM); in assay [5] it was 4 µg/mL (≈ 7.25 µM); in assay [6], 1 µg/mL (≈ 1.81 µM). For the same compound, in assay [7], the MIC was more than 64 µg/mL.

Regarding `NCC[C@H](O)C(=O)N[C@@H]1C[C@H](N)[C@@H](O[C@H]2O[C@H](CN)CC[C@H]2N)[C@H](O)[C@H]1O[C@H]1O[C@H](CO)[C@H](O)[C@H](N)[C@H]1O`, the MIC stood at 0.13 µg/mL (≈ 0.235 µM) in [1]; 32 µg/mL (≈ 57.9 µM) in assay [2]; 16 µg/mL (≈ 29 µM) in assay [3]; 1 µg/mL (≈ 1.81 µM) in [4]; 4 µg/mL (≈ 7.24 µM) in [5]; 0.25 µg/mL (≈ 0.452 µM) in assay [6]. Moreover, inhibition of growth in [7] (MIC) required 32 µg/mL (≈ 57.9 µM).

Take `[N-]=[N+]=N[C@H]1[C@@H](O[C@H]2O[C@H](CO)[C@H](O)[C@H](N)[C@H]2O)[C@H](NC(=O)[C@@H](O)CCN)C[C@H](N)[C@H]1O[C@H]1O[C@H](CN)CC[C@H]1N`: the MIC in assay [1] was 0.25 µg/mL (≈ 0.433 µM); in [2], 4 µg/mL (≈ 6.92 µM); in assay [3], 4 µg/mL (≈ 6.92 µM); in assay [4], 1 µg/mL (≈ 1.73 µM); in assay [5], 8 µg/mL (≈ 13.8 µM); in assay [6] it was 0.5 µg/mL (≈ 0.866 µM). The same compound yielded an MIC in assay [7] of 128 µg/mL (≈ 222 µM).

On to `NCC[C@H](O)C(=O)N[C@@H]1C[C@H](N)[C@@H](O[C@H]2O[C@H](CN)CC[C@H]2N)[C@H](O)[C@H]1O[C@H]1O[C@H](CO)[C@H](N)[C@H](N)[C@H]1O`, for which the minimum inhibitory concentration (MIC) in assay [1] was 4 µg/mL (≈ 7.25 µM); in assay [2], more than 128 µg/mL; in [3], more than 128 µg/mL; in assay [4], 16 µg/mL (≈ 29 µM); in assay [5], 64 µg/mL (≈ 116 µM); in assay [6], 8 µg/mL (≈ 14.5 µM). The compound further returned an MIC in assay [7] of more than 128 µg/mL.

As for `NCC[C@H](O)C(=O)N[C@@H]1C[C@H](N)[C@@H](O[C@H]2O[C@H](CN)CC[C@H]2N)[C@H](O)[C@H]1O[C@H]1O[C@H](CO)C[C@H](N)[C@H]1O`, the MIC in assay [1] is 0.13 µg/mL (≈ 0.242 µM); in assay [2], more than 64 µg/mL; in assay [3], 64 µg/mL (≈ 119 µM); in assay [4], 2 µg/mL (≈ 3.73 µM); in [5], 4 µg/mL (≈ 7.45 µM); in assay [6] it was 0.5 µg/mL (≈ 0.932 µM). For the same compound, 32 µg/mL (≈ 59.6 µM) was the least that counted as inhibitory in assay [7] (MIC).

With `NCC[C@H](O)C(=O)N[C@@H]1C[C@H](N)[C@@H](O[C@H]2O[C@H](CN)CC[C@H]2N)[C@@H](O)[C@H]1O[C@H]1O[C@H](CO)[C@H](O)[C@H](N)[C@H]1O`, the MIC in [1] amounted to 0.06 µg/mL (≈ 0.109 µM); in assay [2], 1 µg/mL (≈ 1.81 µM); in assay [3], 1 µg/mL (≈ 1.81 µM); in assay [4], 0.5 µg/mL (≈ 0.905 µM); in assay [5], 1 µg/mL (≈ 1.81 µM); in assay [6], 0.25 µg/mL (≈ 0.452 µM). The compound further came in with a minimal inhibitory concentration (MIC) in assay [7] of 16 µg/mL (≈ 29 µM). Moreover, the MIC50 in [8] was 1 µg/mL (≈ 1.81 µM); in assay [9] it was 0.25 µg/mL (≈ 0.452 µM). Moreover, the figures for the MIC90 in assay [8] and in assay [9] were 4 µg/mL (≈ 7.24 µM) and 0.25 µg/mL (≈ 0.452 µM), respectively.

On to `NCC[C@H](O)C(=O)N[C@@H]1C[C@H](N)[C@@H](O[C@H]2O[C@H](CN)CC[C@H]2N)[C@H](O)[C@H]1O[C@H]1O[C@@H](CO)[C@@H](O)[C@H](N)[C@H]1O`, for which the minimum inhibitory concentration (MIC) in assay [1] came out at 0.06 µg/mL (≈ 0.109 µM); in [2], 2 µg/mL (≈ 3.62 µM); in [3], 2 µg/mL (≈ 3.62 µM); in assay [4] it was 1 µg/mL (≈ 1.81 µM); in [5], 2 µg/mL (≈ 3.62 µM); in assay [6], 0.25 µg/mL (≈ 0.452 µM). Moreover, the lowest concentration to inhibit growth in assay [7] (MIC) was 8 µg/mL (≈ 14.5 µM).

In the case of `NCC[C@H](O)C(=O)N[C@@H]1C[C@H](N)[C@@H](O[C@H]2O[C@H](CN)CC[C@H]2N)[C@@H](Cl)[C@H]1O[C@H]1O[C@H](CO)[C@H](O)[C@H](N)[C@H]1O`, the MIC in assay [1] turned out to be 0.13 µg/mL (≈ 0.228 µM); in assay [2], 2 µg/mL (≈ 3.5 µM); in [3], 2 µg/mL (≈ 3.5 µM); in assay [4] it was 1 µg/mL (≈ 1.75 µM); in assay [5], 4 µg/mL (≈ 7 µM); in assay [6] it was 0.5 µg/mL (≈ 0.876 µM). The compound further came in with a minimal inhibitory concentration (MIC) in assay [7] of more than 32 µg/mL.

In the case of `CNC[C@@H]1CC[C@@H](N)[C@@H](O[C@H]2[C@@H](O)[C@@H](O[C@H]3O[C@H](CO)[C@H](O)[C@H](N)[C@H]3O)[C@H](NC(=O)[C@@H](O)CCN)C[C@@H]2N)O1`, the MIC in assay [1] came out at 0.13 µg/mL (≈ 0.229 µM); in [2], 4 µg/mL (≈ 7.06 µM); in assay [3] it was 1 µg/mL (≈ 1.76 µM); in [4] it was 1 µg/mL (≈ 1.76 µM); in assay [5], 2 µg/mL (≈ 3.53 µM); in [6], 0.5 µg/mL (≈ 0.882 µM). Besides, the MIC in assay [7] worked out at 4 µg/mL (≈ 7.06 µM).

Consider `[N-]=[N+]=N[C@@H]1[C@H](N)[C@@H](O)[C@@H](O[C@@H]2[C@@H](O)[C@H](O[C@H]3O[C@H](CN)CC[C@H]3N)[C@@H](N)C[C@H]2NC(=O)[C@@H](O)CCN)O[C@@H]1CO`, for which the MIC in [1] is 0.13 µg/mL (≈ 0.225 µM); in assay [2], more than 128 µg/mL; in [3] it was 128 µg/mL (≈ 222 µM); in [4], 2 µg/mL (≈ 3.46 µM); in [5], 16 µg/mL (≈ 27.7 µM); in [6] it was 0.5 µg/mL (≈ 0.866 µM). The compound also gave an MIC in assay [7] of 64 µg/mL (≈ 111 µM).

Consider `NCC[C@H](O)C(=O)N[C@@H]1C[C@H](N)[C@@H](O[C@H]2O[C@H](CN)CC[C@H]2N)[C@H](O)[C@H]1O[C@H]1O[C@H](CO)[C@@H](O)[C@H](N)[C@H]1O` [ARBEKACIN], for which the MIC amounted to 0.06 µg/mL (≈ 0.109 µM) in assay [1]; 64 µg/mL (≈ 116 µM) in assay [2]; 16 µg/mL (≈ 29 µM) in assay [3]; 1 µg/mL (≈ 1.81 µM) in assay [4]; 2 µg/mL (≈ 3.62 µM) in [5]; 0.25 µg/mL (≈ 0.452 µM) in assay [6]. This compound also came in with a minimum inhibitory concentration (MIC) in [7] of 16 µg/mL (≈ 29 µM). For the same compound, the MIC50 was determined as 2 µg/mL (≈ 3.62 µM) in assay [8] and 0.5 µg/mL (≈ 0.905 µM) in assay [9]. Besides, the MIC90 in assay [8] came to 16 µg/mL (≈ 29 µM); in assay [9], 2 µg/mL (≈ 3.62 µM).
